Tests used:
Format in all cases: cell-based, human
hOC promoter = experiment: hOC promoter-luciferase reporter activity in transfected cells; conditions: C4-2B cells
Description: Plasmid Construction. Genomic DNA was used in the PCR of the 0.8-kb hOC promoter inserting KpnI and XhoI sites, subsequently cloned into pGL3-Basic-luciferase reporter vector (Promega, Madison, Wis.) as described before (9). The deletion constructs, ΔA [374 bp upstream of AP1/VDRE (AV) element], ΔTst-1 (POU-factor Tst-1/Oct-6 binding site), ΔCRE (cAMP-responsive element) and ΔIRF-1 (interferon regulatory factor-i binding site) in hOC promoter/pGL3 were generated by recombinant PCR technique. The point mutation plasmids in CRE (from -643 to -636 in hOC promoter, 5′-[…]-3′) were constructed with a QuikChange Site-Directed Mutagenesis Kit (Stratagene). The mutation constructs (see below) are one-point substitution mutants, Mut1 (-642 G→T), Mut2 (-641 A→C), Mut3 (-640 C→A), Mut4 (-639 C→A) and Mut5 (-638 T→G), a two-point substitution mutant, Mut6 (-640 and -639 CC→AA), and a two-point deletion construct, Mut7 (-640 and -639 CC→XX). The 1.5-kb hBSP promoter construct prepared in the pGL3-luciferase reporter vector has been described previously (36). The single deletion constructs ΔCRE1 (-79 to -72) and ΔCRE2 (-674 to -667), and a double deletion construct ΔCRE2/CRE1 in the hBSP promoter/pGL3-luciferase plasmid were generated by recombinant PCR technique. All plasmid constructs were confirmed by DNA sequencing.
Transfection and Luciferase Activity Assay. Cells were trypsinized and seeded at a density of 1.5×10^5 cells/well (LNCaP, C4-2B, DU145 and ARCaP) and 1.0×10^5 cells/well (PC3 and MG63) in 12-well plates 24 h before transfection. Plasmid DNAs were introduced into cells by complexing with a commercial reagent DOTAP (Roche Molecular Biochemicals) according to the manufacturer's protocol. Each transfection reaction contained 1.25 μg of tested DNA constructs and 0.25 μg of the transfection efficiency control CMV promoter-driven β-galactosidase plasmid DNA. After 6 h transfection, DNA-liposome mixtures were replaced by fresh T-medium or CM. Tansfected cells were harvested and lysed in 1× Reporter Lysis buffer (Promega) after 36 h additional incubation. Cell lysates were vortexed for 15 s and spun for 10 min. For luciferase activity assay, 20 μl of the lysate supernatant was mixed with 100 μl of the luciferase substrate (Promega) and detected by a luminometer (Monolight 3010, luminometer PharMingen, San Diego, Calif.). For β-galactosidase activity assay, 100 μl of the supernatant was mixed with 100 μl of 2×β-galactosidase substrate [200 mM sodium phosphate buffer, pH 7.3, 2 mM MgCl2, 100 mM β-mercaptoethanol and 1.33 mg/ml o-nitrophenyl-β-D-galactopyranoside (ONPG)], and incubated at 37° C. for 30 min. β-galactosidase activity was detected by Microplate spectrophotometer (Molecular Devices Corp., Sunnyvale, Calif.) at 405 nm wavelength. Data were presented as normalized luciferase activity (means±standard deviations), defined as luciferase activity normalized to internal control β-galactosidase activity for transfection efficiency. All studies were performed in three independent experiments with duplicate assays.

hBSP promoter = experiment: hBSP promoter-luciferase reporter activity in transfected cells; conditions: C4-2B cells; H-89 10^−8 to 10^−6 M for 2 h, then FSK 10^−6 M 16 h; concentration-dependent
Description: Plasmid Construction. Genomic DNA was used in the PCR of the 0.8-kb hOC promoter inserting KpnI and XhoI sites, subsequently cloned into pGL3-Basic-luciferase reporter vector (Promega, Madison, Wis.) as described before (9). The deletion constructs, ΔA [374 bp upstream of AP1/VDRE (AV) element], ΔTst-1 (POU-factor Tst-1/Oct-6 binding site), ΔCRE (cAMP-responsive element) and ΔIRF-1 (interferon regulatory factor-i binding site) in hOC promoter/pGL3 were generated by recombinant PCR technique. The point mutation plasmids in CRE (from -643 to -636 in hOC promoter, 5′-[…]-3′) were constructed with a QuikChange Site-Directed Mutagenesis Kit (Stratagene). […]
Transfection and Luciferase Activity Assay. […] For luciferase activity assay, 20 μl of the lysate supernatant was mixed with 100 μl of the luciferase substrate (Promega) and detected by a luminometer (Monolight 3010, luminometer PharMingen, San Diego, Calif.). For β-galactosidase activity assay, 100 μl of the supernatant was mixed with 100 μl of 2×β-galactosidase substrate [200 mM sodium phosphate buffer, pH 7.3, 2 mM MgCl2, 100 mM β-mercaptoethanol and 1.33 mg/ml o-nitrophenyl-β-D-galactopyranoside (ONPG)], and incubated at 37° C. for 30 min. β-galactosidase activity was detected by Microplate spectrophotometer (Molecular Devices Corp., Sunnyvale, Calif.) at 405 nm wavelength. […]

[1] = test system: CRE-nuclear protein (CREB) complexes; experiment: Electrophoretic mobility shift assay (EMSA) with 32P-labeled CRE probe and nuclear extracts of treated cells; conditions: nuclear extracts of C4-2B cells; H-89 10^−6 M
Protocol: Electrophoretic Mobility Shift Assay (EMSA). A LNCaP-lineaged metastatic human prostate cancer cell line, C4-2B, and the human osteosarcoma cell line MG63 were plated in 15-cm diameter tissue culture dishes in T-medium (with 5% serum) until 80% confluence. Cells were then switched to 1-day complete serum-free condition and then treated with or without ARCaP CM (15 μg/ml) or FSK (10^−5 M) for an additional 16 h. Nuclear extracts were prepared from C4-2B and MG63 for EMSA as described by Ausubel et al (37). Briefly, cells were washed with cold PBS twice, harvested and homogenized in hypotonic buffer (10 mM HEPES, pH 7.9, 1.5 mM MgCl2, 10 mM KCl, 0.5 mM DTT and 0.2 mM PMSF). After centrifugation, the nuclear pellets were stirred and incubated for 30 min in high-salt buffer (20 mM HEPES, pH 7.9, 25% glycerol, 1.5 mM MgCl2, 1.2 M KCl, 0.2 mM EDTA, 0.5 mM DTT and 0.2 mM PMSF) on ice. The nuclear pellets were centrifuged, and the nuclear extract supernatants were dialyzed twice against dialysis buffer (20 mM HEPES, pH 7.9, 20% glycerol, 100 mM KCl, 0.2 mM EDTA, 0.5 mM DTT and 0.2 mM PMSF) overnight. The concentration of nuclear proteins was determined by the Bradford method using Coomassie plus protein reagent (Pierce). Synthetic oligonucleotides were purified by PAGE. Appropriate pairs were annealed by heating up to 95° C. for 10 min and naturally cooled down to room temperature. […]

## O=S(=O)(NCCNCC=Cc1ccc(Br)cc1)c1cccc2cnccc12 [H-89, N-[2-(p-bromocinnamylamino)ethyl]-5-isoquinolinesulfonamide]
hOC promoter; H-89 10^−6 M 2 h, then ARCaP CM 15 μg/ml 16 h
  ARCaP CM-mediated activation of hOC promoter activity: inhibited
hOC promoter; H-89 10^−6 M 2 h, then PMA 10^−6 M 16 h
  PMA-induced hOC promoter activation: not blocked
hOC promoter; H-89 10^−6 M 2 h, then db cAMP 10^−3 M 16 h
  db cAMP-mediated activation of hOC promoter activity: inhibited
hOC promoter; H-89 10^−6 M, CM harvested from C4-2B, DU145, PC3 and MG63 cell lines
  CM-induced hOC promoter activity: nearly abolished
hOC promoter; H-89 10^−8 to 10^−6 M for 2 h, then FSK 10^−6 M 16 h, concentration-dependent
  FSK-stimulated hOC promoter activity: inhibited
hBSP promoter
  FSK-stimulated hBSP promoter activity: inhibited
[1]
  ARCaP CM- and FSK-induced CRE binding to nuclear proteins: abolish

— patent US20070078085A1, “Methods and compositions for the utilization and targeting of osteomimicry” (priority 2004, published 2007)
